Source: ChEMBL document CHEMBL1146715, “The discovery and synthesis of novel adenosine substituted 2,3-dihydro-1H-isoindol-1-ones: potent inhibitors of poly(ADP-ribose) polymerase-1 (PARP-1)” (Bioorg Med Chem Lett, 2004)

These molecules were tested against Poly [ADP-ribose] polymerase 1 (Mus musculus) (UniProt P11103) (assay: Percent inhibition of poly(ADP-ribose) polymerase-1 (PARP-1) in mouse using Cell protection assay at 10 uM).
Chain of Poly [ADP-ribose] polymerase 1 (Mus musculus) (P11103 whole entry): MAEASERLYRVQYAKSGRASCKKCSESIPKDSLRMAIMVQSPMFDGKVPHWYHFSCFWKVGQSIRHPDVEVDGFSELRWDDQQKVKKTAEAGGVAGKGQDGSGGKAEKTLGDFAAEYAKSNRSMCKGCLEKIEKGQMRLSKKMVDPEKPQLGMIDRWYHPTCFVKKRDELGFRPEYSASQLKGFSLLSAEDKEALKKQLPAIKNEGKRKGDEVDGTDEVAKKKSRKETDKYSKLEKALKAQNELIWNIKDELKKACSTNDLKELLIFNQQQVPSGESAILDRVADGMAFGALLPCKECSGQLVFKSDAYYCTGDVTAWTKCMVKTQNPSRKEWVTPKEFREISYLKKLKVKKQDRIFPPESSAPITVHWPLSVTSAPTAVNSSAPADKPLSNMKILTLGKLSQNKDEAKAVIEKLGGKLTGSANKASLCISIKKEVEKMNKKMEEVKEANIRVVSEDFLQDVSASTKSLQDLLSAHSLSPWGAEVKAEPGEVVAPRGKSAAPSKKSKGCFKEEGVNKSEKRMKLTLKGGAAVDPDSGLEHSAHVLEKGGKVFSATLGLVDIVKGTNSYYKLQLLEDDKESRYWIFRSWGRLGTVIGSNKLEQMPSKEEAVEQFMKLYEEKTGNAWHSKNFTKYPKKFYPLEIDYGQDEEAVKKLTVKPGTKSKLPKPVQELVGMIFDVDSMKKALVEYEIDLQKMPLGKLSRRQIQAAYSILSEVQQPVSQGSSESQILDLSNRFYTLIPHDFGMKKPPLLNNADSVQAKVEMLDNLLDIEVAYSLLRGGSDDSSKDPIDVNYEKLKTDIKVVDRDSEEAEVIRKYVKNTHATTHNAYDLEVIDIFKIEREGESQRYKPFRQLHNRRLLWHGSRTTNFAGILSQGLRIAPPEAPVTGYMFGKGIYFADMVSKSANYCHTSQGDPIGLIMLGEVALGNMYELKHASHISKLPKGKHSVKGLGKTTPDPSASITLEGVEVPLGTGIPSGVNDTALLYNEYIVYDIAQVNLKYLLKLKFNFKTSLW

| inhibition | SMILES |
| --- | --- |
| 30% | O=C(CCCCCCC(=O)Nc1cccc2c1CNC2=O)NC[C@H]1OC(n2cnc3c(O)ncnc32)[C@H](O)[C@@H]1O (some centres undefined) |
| 33% | O=C1N=Cc2ccccc21 |
| 51% | Nc1ncnc2c1ncn2C1O[C@H](CNC(=O)/C=C/c2ccc(C(=O)Nc3cccc4c3CNC4=O)cc2)[C@@H](O)[C@H]1O (some centres undefined) |
| 52% | NC(=O)c1cccc(NC(=O)CCC(=O)NCC2OC(n3cnc4c(N)ncnc43)[C@H](O)[C@@H]2O)c1 (some centres undefined) |
